Measurements from ChEMBL document CHEMBL4387741, “Optimization of novel reversible Bruton's tyrosine kinase inhibitors identified using Tethering-fragment-based screens” (Bioorg Med Chem, 2019).

Assays:
[1] = biological target: Phosphatidylinositol 3-kinase C2 domain-containing subunit gamma (Homo sapiens) (UniProt O75747); experiment: Inhibition of wild-type human partial length PIK3C2G (M1 to I1446 residues) expressed in mammalian expression system at 1 uM by Kinomescan method relative to control
[2] = biological target: RAF proto-oncogene serine/threonine-protein kinase (Homo sapiens) (UniProt P04049); experiment: Inhibition of wild-type human partial length RAF1 (I330 to T640 residues) expressed in bacterial expression system at 1 uM by Kinomescan method relative to control
[3] = biological target: Ephrin type-A receptor 7 (Homo sapiens) (UniProt Q15375); experiment: Inhibition of wild-type human partial length EPHA7 (Y608 to S912 residues) expressed in bacterial expression system at 1 uM by Kinomescan method relative to control
Sequence of Ephrin type-A receptor 7 (Homo sapiens) (Q15375 28-998 limits assumed): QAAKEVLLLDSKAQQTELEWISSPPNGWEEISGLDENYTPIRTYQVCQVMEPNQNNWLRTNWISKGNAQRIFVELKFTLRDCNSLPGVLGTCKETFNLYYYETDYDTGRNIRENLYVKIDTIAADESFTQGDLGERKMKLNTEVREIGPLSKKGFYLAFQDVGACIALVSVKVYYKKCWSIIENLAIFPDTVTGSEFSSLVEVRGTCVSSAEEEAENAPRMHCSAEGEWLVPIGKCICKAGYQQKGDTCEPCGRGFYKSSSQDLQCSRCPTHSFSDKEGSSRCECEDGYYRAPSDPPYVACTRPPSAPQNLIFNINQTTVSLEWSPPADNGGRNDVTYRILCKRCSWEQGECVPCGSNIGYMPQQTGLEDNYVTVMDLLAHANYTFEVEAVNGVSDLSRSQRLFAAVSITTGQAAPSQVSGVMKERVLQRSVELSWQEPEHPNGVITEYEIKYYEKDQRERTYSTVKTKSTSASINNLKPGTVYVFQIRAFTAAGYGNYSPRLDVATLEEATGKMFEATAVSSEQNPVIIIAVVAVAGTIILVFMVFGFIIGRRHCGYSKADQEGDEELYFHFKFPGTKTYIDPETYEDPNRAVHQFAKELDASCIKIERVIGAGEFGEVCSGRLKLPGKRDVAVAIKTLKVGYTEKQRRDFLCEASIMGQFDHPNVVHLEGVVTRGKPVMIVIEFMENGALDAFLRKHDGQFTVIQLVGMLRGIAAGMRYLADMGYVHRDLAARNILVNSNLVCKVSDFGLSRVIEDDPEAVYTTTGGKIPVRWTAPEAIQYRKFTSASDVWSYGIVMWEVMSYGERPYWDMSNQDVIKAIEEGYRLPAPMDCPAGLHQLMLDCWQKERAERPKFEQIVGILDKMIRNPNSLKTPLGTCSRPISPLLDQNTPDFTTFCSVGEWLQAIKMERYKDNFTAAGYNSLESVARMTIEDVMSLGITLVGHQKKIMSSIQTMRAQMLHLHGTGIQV

[4] = biological target: Dual specificity mitogen-activated protein kinase kinase 1 (Homo sapiens) (UniProt Q02750); experiment: Inhibition of wild-type human full length MEK1 (M1 to V393 residues) expressed in mammalian expression system at 1 uM by Kinomescan method relative to control
[5] = biological target: Glycogen synthase kinase-3 alpha (Homo sapiens) (UniProt P49840); experiment: Inhibition of wild-type human full length GSK3A (M1 to S483 residues) expressed in bacterial expression system at 1 uM by Kinomescan method relative to control
[6] = biological target: Dual specificity protein kinase CLK4 (Homo sapiens) (UniProt Q9HAZ1); experiment: Inhibition of wild-type human partial length CLK4 (R135 to K481 residues) expressed in bacterial expression system at 1 uM by Kinomescan method relative to control
[7] = biological target: Mitogen-activated protein kinase 12 (Homo sapiens) (UniProt P53778); experiment: Inhibition of wild-type human full length p38-gamma (M1 to L367 residues) expressed in mammalian expression system at 1 uM by Kinomescan method relative to control
Sequence of Mitogen-activated protein kinase 12 (Homo sapiens) (P53778 whole entry, the tested form may be a part): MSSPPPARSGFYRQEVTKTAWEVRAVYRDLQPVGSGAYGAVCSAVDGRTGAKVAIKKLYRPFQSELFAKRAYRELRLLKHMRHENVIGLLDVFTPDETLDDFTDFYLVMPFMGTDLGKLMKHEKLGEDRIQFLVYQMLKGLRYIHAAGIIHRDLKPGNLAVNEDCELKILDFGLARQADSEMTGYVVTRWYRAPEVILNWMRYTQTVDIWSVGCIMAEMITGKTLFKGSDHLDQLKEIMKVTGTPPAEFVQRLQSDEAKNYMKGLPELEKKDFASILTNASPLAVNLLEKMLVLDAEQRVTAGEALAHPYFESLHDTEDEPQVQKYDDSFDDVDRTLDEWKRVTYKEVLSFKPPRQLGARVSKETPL

[8] = system: eIF-2-alpha kinase GCN2 (Homo sapiens), Q9P2K8 [S808G]; experiment: Inhibition of wild-type human partial length GCN2 kinase domain 2 (R585 to T1018 residues) S808G mutant expressed in bacterial expression system at 1 uM by Kinomescan method relative to control
Sequence of eIF-2-alpha kinase GCN2 (Homo sapiens), Q9P2K8 [S808G] (Q9P2K8 whole entry S808G, the tested form may be a part): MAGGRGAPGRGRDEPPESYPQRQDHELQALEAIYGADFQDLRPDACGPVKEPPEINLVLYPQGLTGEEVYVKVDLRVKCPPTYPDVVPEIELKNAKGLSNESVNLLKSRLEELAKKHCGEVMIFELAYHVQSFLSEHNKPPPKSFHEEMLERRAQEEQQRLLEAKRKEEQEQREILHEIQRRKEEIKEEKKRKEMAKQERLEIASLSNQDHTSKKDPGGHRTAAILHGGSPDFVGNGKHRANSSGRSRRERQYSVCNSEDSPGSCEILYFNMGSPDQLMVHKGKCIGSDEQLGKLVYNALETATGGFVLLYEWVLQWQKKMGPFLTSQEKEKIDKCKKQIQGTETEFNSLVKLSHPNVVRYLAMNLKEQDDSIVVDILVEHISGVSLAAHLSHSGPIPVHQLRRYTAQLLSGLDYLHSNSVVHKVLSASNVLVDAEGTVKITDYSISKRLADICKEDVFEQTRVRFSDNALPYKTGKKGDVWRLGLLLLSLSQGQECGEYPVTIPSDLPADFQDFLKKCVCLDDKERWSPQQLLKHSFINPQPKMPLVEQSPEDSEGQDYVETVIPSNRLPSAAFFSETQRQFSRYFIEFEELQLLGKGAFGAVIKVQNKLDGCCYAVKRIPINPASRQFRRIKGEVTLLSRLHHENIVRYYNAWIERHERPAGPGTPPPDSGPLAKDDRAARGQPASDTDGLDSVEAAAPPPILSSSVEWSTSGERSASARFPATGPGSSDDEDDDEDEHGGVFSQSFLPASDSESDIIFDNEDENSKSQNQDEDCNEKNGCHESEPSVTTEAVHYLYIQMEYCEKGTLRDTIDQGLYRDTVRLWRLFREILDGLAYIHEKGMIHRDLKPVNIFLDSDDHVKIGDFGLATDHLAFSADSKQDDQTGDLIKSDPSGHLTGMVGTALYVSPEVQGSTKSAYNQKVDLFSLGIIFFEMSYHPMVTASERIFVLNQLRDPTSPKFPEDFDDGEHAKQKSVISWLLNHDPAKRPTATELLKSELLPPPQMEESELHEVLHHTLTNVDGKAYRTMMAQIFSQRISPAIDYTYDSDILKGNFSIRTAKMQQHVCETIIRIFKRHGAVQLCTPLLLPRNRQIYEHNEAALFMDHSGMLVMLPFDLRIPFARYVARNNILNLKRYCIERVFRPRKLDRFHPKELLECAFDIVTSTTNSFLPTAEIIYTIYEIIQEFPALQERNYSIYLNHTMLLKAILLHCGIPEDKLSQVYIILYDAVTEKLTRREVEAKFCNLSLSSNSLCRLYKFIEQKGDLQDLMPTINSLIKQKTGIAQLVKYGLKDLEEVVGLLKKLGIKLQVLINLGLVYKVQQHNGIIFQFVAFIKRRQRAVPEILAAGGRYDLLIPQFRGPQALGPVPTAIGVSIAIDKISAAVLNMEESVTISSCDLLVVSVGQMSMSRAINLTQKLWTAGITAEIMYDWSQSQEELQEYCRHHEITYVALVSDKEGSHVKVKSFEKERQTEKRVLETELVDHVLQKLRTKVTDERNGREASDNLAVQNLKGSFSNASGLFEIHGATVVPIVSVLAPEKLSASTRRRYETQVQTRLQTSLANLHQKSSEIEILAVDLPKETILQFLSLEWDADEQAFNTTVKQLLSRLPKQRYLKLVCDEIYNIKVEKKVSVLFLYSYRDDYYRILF

[9] = system: Receptor-type tyrosine-protein kinase FLT3 (Homo sapiens), P36888 [D835Y]; experiment: Inhibition of human partial length FLT3 D835Y mutant (Q580 to Y969 residues) expressed in bacterial expression system at 1 uM by Kinomescan method relative to control
[10] = system: Fibroblast growth factor receptor 3 (Homo sapiens), P22607 [G697C]; experiment: Inhibition of human partial length FGFR3 G697C mutant (R442 to S771 residues) expressed in bacterial expression system at 1 uM by Kinomescan method relative to control
Sequence of Fibroblast growth factor receptor 3 (Homo sapiens), P22607 [G697C] (P22607 whole entry G697C, the tested form may be a part): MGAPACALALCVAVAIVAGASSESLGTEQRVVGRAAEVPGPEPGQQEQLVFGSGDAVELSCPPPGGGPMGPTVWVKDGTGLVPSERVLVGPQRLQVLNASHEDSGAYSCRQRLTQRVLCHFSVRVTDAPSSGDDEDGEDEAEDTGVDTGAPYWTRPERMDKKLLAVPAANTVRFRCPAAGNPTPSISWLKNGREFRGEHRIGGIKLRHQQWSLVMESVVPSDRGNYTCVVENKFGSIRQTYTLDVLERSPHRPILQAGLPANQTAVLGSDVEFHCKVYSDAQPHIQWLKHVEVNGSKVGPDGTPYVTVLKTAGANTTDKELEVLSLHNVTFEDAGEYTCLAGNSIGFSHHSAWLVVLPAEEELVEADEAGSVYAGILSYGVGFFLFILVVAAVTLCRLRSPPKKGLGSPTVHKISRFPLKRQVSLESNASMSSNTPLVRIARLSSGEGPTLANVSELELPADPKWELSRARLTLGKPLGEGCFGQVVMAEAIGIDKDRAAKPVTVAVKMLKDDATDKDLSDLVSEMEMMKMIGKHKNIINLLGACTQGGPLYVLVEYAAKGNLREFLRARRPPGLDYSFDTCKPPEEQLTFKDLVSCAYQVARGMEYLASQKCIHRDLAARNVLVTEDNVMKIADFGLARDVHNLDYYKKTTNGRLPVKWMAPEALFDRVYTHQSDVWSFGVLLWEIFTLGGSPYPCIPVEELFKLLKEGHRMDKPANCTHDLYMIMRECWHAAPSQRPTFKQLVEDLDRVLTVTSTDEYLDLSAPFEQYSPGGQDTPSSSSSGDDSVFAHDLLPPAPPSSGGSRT

[11] = biological target: Protein-tyrosine kinase 2-beta (Homo sapiens) (UniProt Q14289); experiment: Inhibition of wild-type human full length PYK2 (M1 to E967 residues) expressed in bacterial expression system at 1 uM by Kinomescan method relative to control
[12] = system: Hepatocyte growth factor receptor (Homo sapiens), P08581 [M1250T]; experiment: Inhibition of human partial length MET M1250T mutant (D1010 to S1367 residues) expressed in bacterial expression system at 10 uM by Kinomescan method relative to control
[13] = system: eIF-2-alpha kinase GCN2 (Homo sapiens), Q9P2K8 [S808G]; experiment: Inhibition of wild-type human partial length GCN2 S808G mutant kinase domain 2 (R585 to T1018 residues) expressed in bacterial expression system at 10 uM by Kinomescan method relative to control
[14] = biological target: Myosin-IIIb (Homo sapiens) (UniProt Q8WXR4); experiment: Inhibition of wild-type human partial length MYO3B (M1 to D357 residues) expressed in bacterial expression system at 10 uM by Kinomescan method relative to control
[15] = biological target: Serine/threonine-protein kinase N1 (Homo sapiens) (UniProt Q16512); experiment: Inhibition of wild-type human partial length PKN1 (E598 to C948 residues) expressed in bacterial expression system at 10 uM by Kinomescan method relative to control
[16] = biological target: Misshapen-like kinase 1 (Homo sapiens) (UniProt Q8N4C8); experiment: Inhibition of wild-type human partial length MINK (M1 to K312 residues) expressed in mammalian expression system at 10 uM by Kinomescan method relative to control
Sequence of Misshapen-like kinase 1 (Homo sapiens) (Q8N4C8 whole entry, looked up, the tested form may be a part): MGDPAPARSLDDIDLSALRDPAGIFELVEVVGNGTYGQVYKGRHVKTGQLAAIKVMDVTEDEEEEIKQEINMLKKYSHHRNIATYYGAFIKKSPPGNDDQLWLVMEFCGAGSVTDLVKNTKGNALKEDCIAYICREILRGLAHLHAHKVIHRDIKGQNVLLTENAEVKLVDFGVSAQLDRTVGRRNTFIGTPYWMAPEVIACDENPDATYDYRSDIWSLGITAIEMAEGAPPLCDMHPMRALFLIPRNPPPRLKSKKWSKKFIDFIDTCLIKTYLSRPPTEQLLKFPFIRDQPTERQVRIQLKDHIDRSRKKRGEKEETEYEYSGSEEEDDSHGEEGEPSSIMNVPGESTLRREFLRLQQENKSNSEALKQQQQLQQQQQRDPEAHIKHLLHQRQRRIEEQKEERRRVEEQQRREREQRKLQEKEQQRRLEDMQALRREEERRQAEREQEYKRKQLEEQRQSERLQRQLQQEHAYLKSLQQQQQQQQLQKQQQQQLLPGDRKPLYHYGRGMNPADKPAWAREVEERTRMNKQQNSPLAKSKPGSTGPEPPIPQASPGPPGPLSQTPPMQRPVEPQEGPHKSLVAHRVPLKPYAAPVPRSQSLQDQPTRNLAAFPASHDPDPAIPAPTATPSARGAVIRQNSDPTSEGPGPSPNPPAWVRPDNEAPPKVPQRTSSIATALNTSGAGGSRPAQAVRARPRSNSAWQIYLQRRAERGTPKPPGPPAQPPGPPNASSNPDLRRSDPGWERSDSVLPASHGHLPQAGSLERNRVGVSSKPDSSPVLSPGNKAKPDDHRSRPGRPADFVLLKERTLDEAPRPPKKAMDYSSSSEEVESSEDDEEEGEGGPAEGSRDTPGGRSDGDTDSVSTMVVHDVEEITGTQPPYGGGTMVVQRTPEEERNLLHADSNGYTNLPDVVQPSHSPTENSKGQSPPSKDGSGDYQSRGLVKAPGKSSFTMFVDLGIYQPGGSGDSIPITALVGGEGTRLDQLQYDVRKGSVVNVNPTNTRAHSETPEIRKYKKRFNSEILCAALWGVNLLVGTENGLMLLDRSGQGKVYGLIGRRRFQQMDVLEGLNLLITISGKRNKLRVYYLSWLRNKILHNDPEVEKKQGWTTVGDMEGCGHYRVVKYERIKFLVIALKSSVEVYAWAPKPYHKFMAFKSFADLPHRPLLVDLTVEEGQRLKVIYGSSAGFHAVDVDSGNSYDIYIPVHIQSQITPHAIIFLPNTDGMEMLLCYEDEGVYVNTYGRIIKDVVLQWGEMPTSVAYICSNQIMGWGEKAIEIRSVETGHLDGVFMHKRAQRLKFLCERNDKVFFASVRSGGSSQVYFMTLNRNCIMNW

[17] = biological target: Mitogen-activated protein kinase kinase kinase 4 (Homo sapiens) (UniProt Q9Y6R4); experiment: Inhibition of wild-type human partial length MAP3K4 (G1319 to E1608 residues) expressed in bacterial expression system at 10 uM by Kinomescan method relative to control
[18] = biological target: Megakaryocyte-associated tyrosine-protein kinase (Homo sapiens) (UniProt P42679); experiment: Inhibition of wild-type human full length CTK (M43 to P508 residues) expressed in mammalian expression system at 10 uM by Kinomescan method relative to control
[19] = biological target: Serine/threonine-protein kinase TAO1 (Homo sapiens) (UniProt Q7L7X3); experiment: Inhibition of wild-type human partial length TAOK1 (M1 to A320 residues) expressed in mammalian expression system at 10 uM by Kinomescan method relative to control
[20] = system: Receptor-type tyrosine-protein kinase FLT3 (Homo sapiens), P36888 [UNDEFINED MUTATION]; experiment: Inhibition of human partial length FLT3 ITD/D835V double mutant expressed in bacterial expression system at 10 uM by Kinomescan method relative to control
[21] = biological target: Ribosomal protein S6 kinase alpha-5 (Homo sapiens) (UniProt O75582); experiment: Inhibition of wild-type human partial length N-terminal RPS6KA5 kinase domain 1 expressed in bacterial expression system at 10 uM by Kinomescan method relative to control
[22] = biological target: Calcium/calmodulin-dependent protein kinase kinase 1 (Homo sapiens) (UniProt Q8N5S9); experiment: Inhibition of wild-type human partial length CAMKK1 (R65 to E414 residues) expressed in bacterial expression system at 10 uM by Kinomescan method relative to control
[23] = biological target: Bone morphogenetic protein receptor type-1A (Homo sapiens) (UniProt P36894); experiment: Inhibition of wild-type human partial length BMPR1A (Q214 to I532 residues) expressed in bacterial expression system at 10 uM by Kinomescan method relative to control
[24] = biological target: Mast/stem cell growth factor receptor Kit (Homo sapiens) (UniProt P10721); experiment: Inhibition of wild-type human partial length autoinhibited KIT (Y545 to D952 residues) expressed in mammalian expression system at 10 uM by Kinomescan method relative to control
[25] = biological target: Fibroblast growth factor receptor 4 (Homo sapiens) (UniProt P22455); experiment: Inhibition of wild-type human partial length FGFR4 (G402 to E713 residues) expressed in bacterial expression system at 10 uM by Kinomescan method relative to control
[26] = biological target: Wee1-like protein kinase 2 (Homo sapiens) (UniProt P0C1S8); experiment: Inhibition of wild-type human partial length WEE2 (M204 to K492 residues) expressed in bacterial expression system at 10 uM by Kinomescan method relative to control
[27] = biological target: Ankyrin repeat and protein kinase domain-containing protein 1 (Homo sapiens) (UniProt Q8NFD2); experiment: Inhibition of wild-type human partial length ANKK1 (M1 to A305 residues) expressed in mammalian expression system at 10 uM by Kinomescan method relative to control

In the case of `O=C(Nc1cccc([C@@H]2CN(c3ncnc4[nH]ccc34)CCN2CCO)c1)Nc1c(F)cccc1N1CCCC1`, the inhibition [1] is reported as 95%, the inhibition [2] is reported as 86% and the inhibition [3] is reported as 100%. For the same compound, the inhibition [4] was 68%, the inhibition [5] was 100% and the inhibition [6] was 100%. It also gave an inhibition [7] of 81%, an inhibition [8] of 95% and an inhibition [9] of 2.2%. It also gave an inhibition [10] of 100% and an inhibition [11] of 84%.
`O=C(Nc1cccc([C@H]2CCCN(c3ncnc4[nH]ccc34)C2)c1)Nc1ccccc1N1CCCC1` was tested, and the inhibition [12] was 97%, the inhibition [13] was 46% and the inhibition [14] was 60%. The inhibition [15] was 100%, the inhibition [16] was 37% and the inhibition [17] was 87%. The inhibition [18] was 85%, the inhibition [19] was 62% and the inhibition [20] was 8.3%. For the same compound, the inhibition [21] was 100%, the inhibition [22] was 82% and the inhibition [23] was 82%. For the same compound, the inhibition [24] was 71%, the inhibition [25] was 96% and the inhibition [26] was 100%. It also gave an inhibition [27] of 96%.
